Data published in patent publication EP2017264A1, “Substituted phenyl propargyl compounds, method for their manufacture and their use as herbicides and plant growth regulators” (BAYER CROPSCIENCE AG, priority 2007, dated 2009).

Experiment: physchem
Experimental: "LogP" = Verteilungskoeffizient in einem Zweiphasengemisch aus n-Octanol und Wasser.
Die log P-Daten wurden in Übereinstimmung mit der EEC Direktive 79/831, Anlage V.A8 (Annex V.A8) mittels HPLC (High Performance Liquid Chromatography) auf einer Umkehrphase-Säule (reversed-phase column) (C18) mit folgenden Methoden bestimmt: Temperatur: 40°C; Mobile Phase: 0,1 % bzw. 0,06 %ige wässrige Ameisensäure oder 0,1 % wässriger Phosphorsäure und Acetonitril; linearer Gradient von 10% Acetonitril bis 90% bzw. 95 % Acetonitril. Die Kalibrierung wurde ausgeführt mit Hilfe unverzweigter Alkan-2-one (bestehend aus 3 bis 13 bzw.16 Kohlenstoff-Atomen) mit bekannten IogP-Werten (Bestimmung der IogP-Werte über die Retentionszeiten mittels linearer Interpolation zwischen zwei nachfolgenden Alkanonen).

SMILES	chromatographic logP
COc1ccccc1C=NOCC#Cc1ccc(F)c(SC)c1 [Beispiel 1.053]	4.51
CCSc1cccc(C#CCON=Cc2ccccc2OC)c1 [Beispiel 1.056]	4.9
COc1cc(F)ccc1C=NOCC#Cc1ccc(F)c(SC)c1 [Beispiel 1.066]	4.58
CCSc1cccc(C#CCON=Cc2ccc(F)cc2OC)c1 [Beispiel 1.069]	4.9
Cc1ccc(C#CCON=Cc2ccccc2Oc2ccc(Cl)cc2)cc1[S+](C)[O-] (stereo not drawn) [Beispiel 1.379]	4.11
COc1ccccc1C=NOCC#Cc1cccc([S+]([O-])C(F)(F)F)c1 (stereo not drawn) [Beispiel 1.380]	3.88
COc1ccccc1C=NOCC#Cc1ccccc1SC [Beispiel 1.386]	4.23
COc1ccc(C=NOCC#Cc2cccc(CC#N)c2)c(OC)c1 [Beispiel 1.387]	3.22
COc1ccc(C=NOCC#Cc2cccc(SC)c2)c(OC)c1 [Beispiel 1.388]	4.4
COc1ccc(C=NOCC#Cc2cccc([S+](C)[O-])c2)c(OC)c1 (stereo not drawn) [Beispiel 1.389]	2.42
COc1cccc(OC)c1C=NOCC#Cc1cccc(SC)c1 [Beispiel 1.393]	3.77
COc1ccccc1C=NOCC#Cc1ccc(C#N)c(SC)c1 [Beispiel 1.394]	3.94
COc1cc(F)ccc1C=NOCC#Cc1ccc(C#N)c(SC)c1 [Beispiel 1.395]	3.97
COc1cccc(OC)c1C=NOCC#Cc1cccc([S+](C)[O-])c1 (stereo not drawn) [Beispiel 1.396]	2.04
COc1cccc(OC)c1C=NOCC#Cc1cccc(CC#N)c1 [Beispiel 1.397]	2.86
CCSc1cc(C#CCON=Cc2ccccc2OC)ccc1OC [Beispiel 1.398]	4.45
CCSc1cc(C#CCON=Cc2ccc(F)cc2OC)ccc1OC [Beispiel 1.399]	4.53
CC[S+]([O-])c1cc(C#CCON=Cc2ccccc2OC)ccc1OC (stereo not drawn) [Beispiel 1.401]	3.07
CC[S+]([O-])c1cc(C#CCON=Cc2ccc(F)cc2OC)ccc1OC (stereo not drawn) [Beispiel 1.402]	3.19
CCC(=NOCC#Cc1cccc(OC)c1)c1ccccc1 [Beispiel 1.403]	4.45
CCC(=NOCC#Cc1cccc(C(F)(F)F)c1)c1ccccc1 [Beispiel 1.404]	5.13
CCC(=NOCC#Cc1cccc(SC)c1)c1ccccc1 [Beispiel 1.405]	4.84
CCC(=NOCC#Cc1cccc(CC#N)c1)c1ccccc1 [Beispiel 1.406]	3.87

SMILES	chromatographic logP
CCC(=NOCC#Cc1cccc(OC)c1)c1ccc(C)cc1 [Beispiel 1.407]	4.92
CCC(=NOCC#Cc1cccc(C(F)(F)F)c1)c1ccc(C)cc1 [Beispiel 1.408]	5.53
CCC(=NOCC#Cc1cccc(SC)c1)c1ccc(C)cc1 [Beispiel 1.409]	5.36
CCC(=NOCC#Cc1cccc(CC#N)c1)c1ccc(C)cc1 [Beispiel 1.410]	4.18
CCC(=NOCC#Cc1cccc(OC)c1)c1ccc(F)cc1 [Beispiel 1.411]	4.54
CCC(=NOCC#Cc1cccc(C(F)(F)F)c1)c1ccc(F)cc1 [Beispiel 1.412]	5.13
CCC(=NOCC#Cc1cccc(SC)c1)c1ccc(F)cc1 [Beispiel 1.413]	4.97
CCC(=NOCC#Cc1cccc(CC#N)c1)c1ccc(F)cc1 [Beispiel 1.414]	3.88
CCC(=NOCC#Cc1cccc(OC)c1)c1ccccc1F [Beispiel 1.415]	4.42
CCC(=NOCC#Cc1cccc(C(F)(F)F)c1)c1ccccc1F [Beispiel 1.416]	5.03
CCC(=NOCC#Cc1cccc(SC)c1)c1ccccc1F [Beispiel 1.417]	4.84
CCC(=NOCC#Cc1cccc(CC#N)c1)c1ccccc1F [Beispiel 1.418]	3.72
CCC(=NOCC#Cc1cccc(CC#N)c1)c1cccc(Cl)c1Cl [Beispiel 1.419]	4.84
CCC(=NOCC#Cc1cccc([S+](C)[O-])c1)c1ccccc1 (stereo not drawn) [Beispiel 1.420]	2.93
CCC(=NOCC#Cc1cccc([S+](C)[O-])c1)c1ccc(C)cc1 (stereo not drawn) [Beispiel 1.421]	3.46
CCC(=NOCC#Cc1cccc([S+](C)[O-])c1)c1cccc(Cl)c1Cl (stereo not drawn) [Beispiel 1.422]	4.12
CCC(=NOCC#Cc1cccc([S+](C)[O-])c1)c1ccc(F)cc1 (stereo not drawn) [Beispiel 1.423]	3.14
CCSc1cc(C#CCON=Cc2ccccc2OC)ccc1C [Beispiel 1.424]	5.33
CCSc1cc(C#CCON=Cc2ccc(F)cc2OC)ccc1C [Beispiel 1.425]	5.38
CC[S+]([O-])c1cc(C#CCON=Cc2ccccc2OC)ccc1C (stereo not drawn) [Beispiel 1.426]	3.05
CC[S+]([O-])c1cc(C#CCON=Cc2ccc(F)cc2OC)ccc1C (stereo not drawn) [Beispiel 1.427]	3.15
COc1ccccc1C=NOCC#Cc1cccc(OC(F)(F)F)c1 [Beispiel 1.428]	4.72
COc1cc(F)ccc1C=NOCC#Cc1cccc(OC(F)(F)F)c1 [Beispiel 1.429]	4.77

SMILES	chromatographic logP
COc1ccccc1C=NOCC#Cc1cccc(SC(C)C)c1 [Beispiel 1.430]	5.24
COc1cc(F)ccc1C=NOCC#Cc1cccc(SC(C)C)c1 [Beispiel 1.431]	5.26
C=CCSc1cccc(C#CCON=Cc2ccc(F)cc2OC)c1 [Beispiel 1.432]	5.24
COc1cc(F)ccc1C=NOCC#Cc1ccc(OC)c(SC)c1 [Beispiel 1.433]	4.32
COc1ccccc1C=NOCC#Cc1ccc(OC)c(SC)c1 [Beispiel 1.434]	4.24
COc1cc(F)ccc1C=NOCC#Cc1ccc(F)c(SC)c1F [Beispiel 1.435]	4.54
COc1ccccc1C=NOCC#Cc1ccc(F)c(SC)c1F [Beispiel 1.436]	4.48
COc1ccccc1C=NOCC#Cc1ccc(F)c([S+](C)[O-])c1F (stereo not drawn) [Beispiel 1.437]	2.66
COc1cc(F)ccc1C=NOCC#Cc1ccc(F)c([S+](C)[O-])c1F (stereo not drawn) [Beispiel 1.438]	2.75
COc1ccccc1C=NOCC#Cc1cccc(F)c1F [Beispiel 1.439]	4.29
COc1ccccc1C=NOCC#Cc1cc(C)c(F)c(SC)c1 [Beispiel 1.440]	5.01
COc1cc(F)ccc1C=NOCC#Cc1cc(C)c(F)c(SC)c1 [Beispiel 1.441]	5.05
COc1cc(F)ccc1C=NOCC#Cc1ccccc1SC [Beispiel 1.442]	4.29
COc1cc(F)ccc1C=NOCC#Cc1cc(C)c(F)c([S+](C)[O-])c1 (stereo not drawn) [Beispiel 1.443]	3.43
COc1ccccc1C=NOCC#Cc1cc(C)c(F)c([S+](C)[O-])c1 (stereo not drawn) [Beispiel 1.444]	3.32
COc1ccccc1C=NOCC#Cc1ccccc1[S+](C)[O-] (stereo not drawn) [Beispiel 1.445]	2.73
COc1cc(F)ccc1C=NOCC#Cc1ccccc1[S+](C)[O-] (stereo not drawn) [Beispiel 1.446]	2.86
COc1cc(F)ccc1C=NOCC#Cc1ccc(F)c(F)c1SC [Beispiel 1.447]	4.58
COc1cc(F)ccc1C=NOCC#Cc1ccc(F)c(F)c1[S+](C)[O-] (stereo not drawn) [Beispiel 1.448]	2.78
COc1cc(F)ccc1C=NOCC#Cc1cc(SC)c(F)c(SC)c1 [Beispiel 1.449]	5.17
COc1ccccc1C=NOCC#Cc1cc(SC)c(F)c(SC)c1 [Beispiel 1.450]	5.05

The next lines start with the values.

chromatographic logP	SMILES
3.79	CSc1cccc(C#CC(C)ON=Cc2cccc(C)n2)c1 (stereo not drawn) [Beispiel 3.085]
4.18	CSc1cccc(C#CCON=C(C)c2cccc(C)n2)c1 [Beispiel 3.091]
1.75	CC(=NOCC#Cc1cccc([S+](C)[O-])c1)c1cccc(C)n1 (stereo not drawn) [Beispiel 3.092]
2.4	CC(=NOCC#Cc1cccc(S(C)(=O)=O)c1)c1cccc(C)n1 [Beispiel 3.093]
2.96	CC(=NOCC#Cc1cccc(CC#N)c1)c1cccc(C)n1 [Beispiel 3.094]
4.77	CCC(=NOCC#Cc1cccc(SC)c1)c1cccc(C)n1 [Beispiel 3.095]
2.21	CCC(=NOCC#Cc1cccc([S+](C)[O-])c1)c1cccc(C)n1 (stereo not drawn) [Beispiel 3.096]
2.93	CCC(=NOCC#Cc1cccc(S(C)(=O)=O)c1)c1cccc(C)n1 [Beispiel 3.097]
3.5	CCC(=NOCC#Cc1cccc(CC#N)c1)c1cccc(C)n1 [Beispiel 3.098]
4.92	CSc1cccc(C#CCON=Cc2cc(C(F)(F)F)c(Cl)cn2)c1 [Beispiel 3.120]
2.96	C[S+]([O-])c1cccc(C#CCON=Cc2cc(C(F)(F)F)c(Cl)cn2)c1 (stereo not drawn) [Beispiel 3.121]
4.76	CCOc1nc(C=NOCC#Cc2cccc(SC)c2)ccc1F [Beispiel 3.125]
2.78	CCOc1nc(C=NOCC#Cc2cccc([S+](C)[O-])c2)ccc1F (stereo not drawn) [Beispiel 3.126]
4.18	CSc1cccc(C#CCON=Cc2nccnc2SC)c1 [Beispiel 4.078]
2.99	CSc1nccnc1C=NOCC#Cc1cccc(CC#N)c1 [Beispiel 4.080]
3.34	COc1nccnc1C=NOCC#Cc1cccc(SC)c1 [Beispiel 4.084]
2.4	COc1nccnc1C=NOCC#Cc1cccc(CC#N)c1 [Beispiel 4.086]
1.57	COc1nccnc1C=NOCC#Cc1cccc([S+](C)[O-])c1 (stereo not drawn) [Beispiel 4.090]
1.99	COc1nccnc1C=NOCC#Cc1cccc(S(C)(=O)=O)c1 [Beispiel 4.091]
4.03	COc1ncc(Cl)nc1C=NOCC#Cc1cccc(SC)c1 [Beispiel 4.092]
3.09	COc1ncc(Cl)nc1C=NOCC#Cc1cccc(CC#N)c1 [Beispiel 4.094]
2.18	COc1ncc(Cl)nc1C=NOCC#Cc1cccc([S+](C)[O-])c1 (stereo not drawn) [Beispiel 4.098]
4.03	COc1nc(Cl)cnc1C=NOCC#Cc1cccc(SC)c1 [Beispiel 4.100]
